The supplement of paper PMC4858399

Tests used:
Conditions in all cases: exposure time 48 h
[1] = test system: Caenorhabditis elegans N2; experiment: lowest effective concentration for larval growth inhibition (size below effect threshold); higher = less potent
How it was run: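 Chemical exposure ran for 48 h at 20°C: 50 C. elegans N2 L1 larvae per 96-well in K-medium with killed bacteria, 1% DMSO and 0.5, 1, 5, 10, 50, 100 or 200 µM chemical. Extinction of each worm, read as size on the Biosort, was log-transformed and averaged by well. The lowest effective concentration is the first dose whose plate-adjusted mean size is below a fixed value and remains so at all higher doses; the value is 5.665.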

[2] = test system: Caenorhabditis elegans N2; experiment: AC50 for larval growth inhibition (Hill fit); higher = less potent
How it was run: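 Worms were synchronised C. elegans N2 L1 larvae, 50 per well of a 96-well plate, kept 48 h at 20°C in K-medium with killed OP50, 1% DMSO and 0.5–200 µM chemical. Size was taken as COPAS Biosort extinction, log-transformed and averaged per well, using only wells with at least 10 worms. AC50 was estimated by a constrained Hill fit with weighted genetic-algorithm regression; values outside the range are censored.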

[3] = test system: Caenorhabditis elegans N2; experiment: mean nematode size ln(EXT) after 48 h, plate-adjusted (DMSO control set to 6) (ln(EXT), control-adjusted); higher = larger nematodes / less growth inhibition
How it was run: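 C. elegans N2 larvae, synchronised at L1, grew for 48 h at 20°C in K-medium with killed OP50, 1% DMSO and 0.5–200 µM chemical. Mean size per well was derived from natural-logged Biosort extinction after a growth model removed debris. Adjustment across plates involved subtracting the vehicle control mean and adding 6.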

Row | Structure (SMILES) | lowest effective concentration [1] [µM] | AC50 for larval growth inhibition [2] [µM] | mean nematode size ln(EXT) (ln) ([3]; 0.5 µM) | mean nematode size ln(EXT) (ln) ([3]; 1 µM) | mean nematode size ln(EXT) (ln) ([3]; 5 µM) | mean nematode size ln(EXT) (ln) ([3]; 10 µM) | mean nematode size ln(EXT) (ln) ([3]; 50 µM) | mean nematode size ln(EXT) (ln) ([3]; 100 µM) | mean nematode size ln(EXT) (ln) ([3]; 200 µM)
1 | CCCN(CCC)c1c([N+](=O)[O-])cc(C(F)(F)F)cc1[N+](=O)[O-] [Trifluralin] | 200 | 53 | 5.85 | 6.06 | 6.05 | 6 | 5.03 | 6.06 | 3.63
2 | Clc1ccc(C(Cl)(Cl)Cl)cc1 [4-Chlorobenzotrichloride] | 50 | 112 | 5.94 | 5.93 | 5.97 | 5.9 | 5.65 | 4.93 | 3.11
3 | O=C(NC(=O)c1c(F)cccc1F)Nc1ccc(OC(F)(F)C(F)OC(F)(F)F)c(Cl)c1 (stereo unspecified) [Novaluron] | 50 | > 200 | 5.83 | 5.74 | 5.85 | 5.88 | 5.61 | 5.12 | 4.56
4 | Cc1ccc(-c2c(Cl)nc(C#N)n2S(=O)(=O)N(C)C)cc1 [Cyazofamid] | 100 | 60.5 | 5.91 | 5.91 | 5.88 | 6.02 | 5.84 | 5.29 | 4.91
5 | CC(C)N(C(=O)COc1nnc(C(F)(F)F)s1)c1ccc(F)cc1 [Flufenacet] | 200 | 21.5 | 5.91 | 5.94 | 6.03 | 6.05 | 5.45 | 6.04 | 5.52
6 | C#CCC1=C(C)C(OC(=O)C2C(C=C(C)C)C2(C)C)CC1=O (stereo unspecified) [Prallethrin] | 200 | 188 | 5.85 | 6.08 | 6.07 | 6.04 | 5.94 | 6.04 | 4.41
7 | Nc1ccc(Cl)cc1 [p-Chloroaniline] | 50 | 58.2 | 5.79 | 5.76 | 5.74 | 5.76 | 5.28 | 4.43 | 4.21
8 | C[C@@H]1[C@@H](c2ccc(Cl)cc2)SC(=O)N1C(=O)NC1CCCCC1 [Hexythiazox] | 100 | 122 | 6.07 | 5.94 | 5.91 | 5.99 | 5.68 | 5.34 | 3.24
9 | CC#Cc1cc(C)nc(Nc2ccccc2)n1 [Mepanipyrim] | 200 | > 200 | 5.81 | 5.81 | 5.8 | 5.84 | 5.7 | 5.75 | 5.21
10 | CCCCN(CC)c1c([N+](=O)[O-])cc(C(F)(F)F)cc1[N+](=O)[O-] [Benfluralin] | 50 | 175 | 5.76 | 5.73 | 5.82 | 5.7 | 5.31 | 5.04 | 4.16
11 | O=C(CCCN1CCC(O)(c2ccc(Cl)cc2)CC1)c1ccc(F)cc1 [Haloperidol] | 10 | 43.3 | 5.95 | 5.85 | 5.93 | 5.66 | 4.99 | 4.71 | 4.44
12 | CCCCOCCOCCOCc1cc2c(cc1CCC)OCO2 [Piperonyl butoxide] | 50 | 76.9 | 5.87 | 5.86 | 5.8 | 5.86 | 5.48 | 5.43 | 5.41
13 | Cc1ccc(N)cc1N [2,4-Diaminotoluene] | 200 | > 200 | 5.86 | 5.94 | 5.9 | 5.74 | 5.89 | 5.72 | 5.5
14 | Cc1c(C)c2c(c(C)c1O)CCC(C)(COc1ccc(CC3SC(=O)NC3=O)cc1)O2 (stereo unspecified) [Troglitazone] | 50 | 47.7 | 5.7 | 5.77 | 5.66 | 5.69 | 4.39 | 4.11 | 3.59
